# Where a name gives a salt, the structure may show the parent alone. Read-outs that look alike come from different tables or passages of the source.
# Experiments:
# [1] = Stability test of enantiomers: degradation followed by UHPLC reverse phase purity; type: physicochemical
# Method: The analysis of the reverse phase purity of the products to be tested was carried out by an ultra-high pressure liquid chromatography (UHPLC) reverse phase chromatography technique on a Waters UPLC2 liquid chromatograph, marketed by Waters. The mobile phase of the separation varies during the method according to the protocol of Table 1.
# (§1) The stability tests of the enantiomers were performed by comparing the racemization and the degradation of the stored samples either at room temperature without protection against light, or under controlled temperature at 5° C. and protected from light.
# (§2) The stored products are analyzed regularly (T=0, 1 h, 2 h, 3 h, 6 h, 24 h) to follow the evolution of the racemization of enantiomers.
# (§3) After separation by SFC acetonitrile version 2, 1.5 mg of EV-VZWOO 1-070-005 and 2.4 mg of EV-VZWOO 1-070-006 are removed for stability testing.
# (§4) Sample EV-VZWOO 1-070-005 is stored at a temperature of 5° C. under light protection conditions. Sample EV-VZWOO 1-070-006 is stored at room temperature on the bench without protection against light.
# [2] = Stability test of enantiomers: racemization followed by SFC chiral purity analysis; type: physicochemical
# Method: The analysis of the chiral purity of the products to be tested was carried out by a supercritical fluid separation (SFC) technique on a Berger prep chromatograph, marketed by Thar Instruments. The mobile phase of the separation consists of a mixture of methanol added. 0.01% acetic acid and CO2 in a 20/80 ratio. The stationary phase chosen is a Chiralpak IC […] column, 250 mm by 20 mm, marketed by sigma aldrich. The injection rate is 50 ml per minute, at 40° C. under a pressure of 100 bar. The product to be analyzed is dissolved in methanol supplemented with 0.01% acetic acid, with a concentration of 1 mg/ml. 10 μl of this product is injected. The detector is a UV detector with a wavelength greater than 275 nm.
# as §1, §2, §3, §4
# [3] = tested on: hematopoietic stem cells CD41:GFP accumulated in the CHT; type: in vivo; details: for invasion of CHT by CD41:GFP cells / number of cells having colonized CHT, in words: thiazide compounds test, 10 μM or 25 μM, FIG. 9; for reduction of the number of HSCs accumulated in CHT: 24 h
# From the text: A method for determining whether a molecule is capable of treating cancer in the pre-metastatic state has been described in international application WO 2011/007259. This method consists in isolating molecules capable of inhibiting the emergence of hematopoietic stem cells from the floor of the aorta without cell division, but by endothelial-to-hematopoietic transition. This emergence involves the loss of cell polarity of emerging cells, the loss of cellular junctions with these neighboring cells and the acquisition of migratory properties. This model is used because it mimics each stage of the epithelial-mesenchymal transition, the first stage of cancer metastasis. The endothelial-to-hematopoietic transition takes place in a region of the embryo called Aorta-Gonad-Mesonephros (AGM).
# (§5) The colonization of hematopoietic tissues by hematopoietic stem cells mimics the appearance and/or progression of a metastatic cancerous tumor since it involves intravasation, extravasation, or the migration of HSCs following a gradient of SDF-1. The first colonized tissue is caudal hematopoietic tissue (CHT).
# In order to evaluate the inhibition of the endothelial-to-hematopoietic transition, transgenic CD41:GFP (green fluorescent protein) embryos are used. HSCs express GFP under the control of the CD41 promoter, which allows them to be monitored in vivo under a fluorescence microscope. The read-out is the number of hematopoietic stem cells CD41:GFP accumulated in the AGM (mimicking the initiation of the metastatic process) and/or in the CHT of the zebrafish embryo (mimicking the progression of the metastatic process). The accumulation of CD41:GFP cells in CHT implies that each cell has made an endothelial-to-hematopoietic transition, intravasation, extravasation at the CHT level, has settled in a stromal niche and has proliferated.
# The Tg transgenic zebrafish line (CD41:GFP) is maintained in accordance with the protocols described by the Ethical Committee for Animal Experimentation. The fish are kept at a temperature of 28° C. and their development stage is determined as before. The molecules are tested on zebrafish embryos at the 25 hpf stage. The embryos are decorticated and transferred to a 96-well plate (1 embryo/well) containing the test compounds in a final volume of 100 μl of the embryonic growth medium (60 μg salt for 1 ml H2O). […] The treated embryos are incubated for 24 hours in an incubator at 28° C.
# The embryos are imaged with a plate reader after being anesthetized with 0.16% tricaine (ethyl-3-aminobenzoate). A quantification of the number of fluorescent cells (CD41:GFP) accumulated in the CHT is carried out.
# Althiazide was tested on the zebrafish embryo according to the method previously described in the international application WO 2011/007259. This method consists in isolating molecules capable of inhibiting the emergence of hematopoietic stem cells from the floor of the aorta without cell division, but by endothelial-to-hematopoietic transition. This emergence involves the loss of cell polarity of emerging cells, the loss of cellular junctions with these neighboring cells and the acquisition of migratory properties. This model is used, in the context of the invention, because it mimics each of the stages of the epithelial-to-mesenchymal transition, the first stage of the cancerous metastasis. The endothelial-to-hematopoietic transition takes place in a region of the embryo called Aorto-Gonado-Mesonephros (AGM).
# as §5, with “metastatic” for “metastatic cancerous”, “SDF1.” for “SDF-1.”, “(CHT). This physiological process is considered, in the context of the invention, as representative of the appearance and/or progression of a metastatic tumor. […]” for “(CHT).”
# [4] = tested on: MDA-MB-231 cells; assay: Cytotoxicity potentiation test: MTT cell viability of MDA-MB-231 cells, doxorubicin +/- althiazide; type: cell-based, human; details: Homo sapiens, MDA-MB-231, 24 h, 24 h, 1% O2
# Method: The cell cultures are carried out on human breast cancer epithelial cell lines MDA-MB-231 (HTB-26™), resulting from metastases present in a pleural effusion of a patient with a mammary adenocarcinoma. This line is used as a triple negative cancer cell model (no expression of ER-type nuclear estrogen receptors, nuclear progesterone receptors or overexpression of the oncogene encoding HER2 protein (Human Epidermal Growth factor Receptor-2).
# The cell viability is determined via the IC50 index, measured by the MTT technique (2-(4,5-dimethyl-2-thiazolyl)-3,5-diphenyl-2H-tetrazolium bromide) (Mosmann, 1983). This colorimetric test is based on the reduction of yellow tetrazolium salts into insoluble purple formazan crystals in aqueous solution. The spectrophotometric measurement of the absorbance at 570 nm is directly proportional to the number of viable cells
# The cells were seeded in 96-well plates at a density of 25,000 cells per well. After 24 h of culture at 37° C., 5% CO2 and 1% O2, the medium was renewed and supplemented with increasing doses of doxorubicin+/−althiazide. Cells were incubated for 24 h at 37° C., 5% CO2 and 1% O2. The MDA-MB-231 cells were washed and then incubated for 1 hour at 37° C. with 100 μl of a 0.5 mg/ml MTT solution prepared in culture medium. The formazan crystals were dissolved in […] and the absorbance measured at 570 nm using the Tecan Sunrise spectrophotometer. The IC50 was determined using the Graphpad Prism 5.0 software. The treatments were carried out in triplicate and the manipulation was carried out 5 times.
# The tests are carried out in cell culture in 96-well plates, on the cell line MDA-MB-231. The MDA-MB-231 cells are seeded in 96-well plates at a density of 10,000 cells and incubated 24 h at 37° C., 5% CO2 and 1% O2. The medium is then renewed and added with increasing concentrations of doxorubicin+/−100 μM althiazide. The cells are incubated for an additional 24 hours at 37° C., 5% CO2 and 1% O2. Treatments were made in triplicas and the experiment was repeated 5 times.
# A cell viability test is then performed according to the method described in Materials and methods.
# Results are normalized to the control condition (FIG. 12)
# [5] = 0 h, stored at 5° C. protected from light
# [6] = 24 h, stored at 5° C. protected from light
# [7] = 1 h, stored at 5° C. protected from light
# [8] = 2 h, stored at 5° C. protected from light
# [9] = 3 h, stored at 5° C. protected from light
# [10] = 6 h, stored at 5° C. protected from light
# [11] = 0 h, stored at room temperature without protection against light
# [12] = 24 h, stored at room temperature without protection against light
# [13] = 1 h, stored at room temperature without protection against light
# [14] = 2 h, stored at room temperature without protection against light
# [15] = 3 h, stored at room temperature without protection against light
# [16] = 6 h, stored at room temperature without protection against light
# [17] = 10 μM (FIG. 3; b188 prints 10 μl), vs reference embryos treated with DMSO
structure (smiles),measurement,setting,value
C=CCSC[C@@H]1Nc2cc(Cl)c(S(N)(=O)=O)cc2S(=O)(=O)N1 [AZ(A)],UHPLC Pureté en phase inverse,[1]; [5],99.9%
same,UHPLC Pureté en phase inverse,[1]; [6],94.9%
same,SFC AZ(A) (%),[2]; [5],100%
same,SFC AZ(B) (%),[2]; [5],0%
same,SFC AZ(A) (%),[2]; [7],100%
same,SFC AZ(B) (%),[2]; [7],0%
same,SFC AZ(A) (%),[2]; [8],100%
same,SFC AZ(B) (%),[2]; [8],0%
same,SFC AZ(A) (%),[2]; [9],100%
same,SFC AZ(B) (%),[2]; [9],0%
same,SFC AZ(A) (%),[2]; [10],100%
same,SFC AZ(B) (%),[2]; [10],0%
same,SFC AZ(A) (%),[2]; [6],100%
same,SFC AZ(B) (%),[2]; [6],0%
same,"invasion of CHT by CD41:GFP cells / number of cells having colonized CHT, in words",[3],further reduce
C=CCSC[C@H]1Nc2cc(Cl)c(S(N)(=O)=O)cc2S(=O)(=O)N1 [AZ(B)],UHPLC Pureté en phase inverse,[1]; [11],100%
same,UHPLC Pureté en phase inverse,[1]; [12],90.5%
same,SFC AZ(A) (%),[2]; [11],0.6%
same,SFC AZ(B) (%),[2]; [11],99.4%
same,SFC AZ(A) (%),[2]; [13],1.2%
same,SFC AZ(B) (%),[2]; [13],98.8%
same,SFC AZ(A) (%),[2]; [14],1.2%
same,SFC AZ(B) (%),[2]; [14],98.8%
same,SFC AZ(A) (%),[2]; [15],1.7%
same,SFC AZ(B) (%),[2]; [15],98.3%
same,SFC AZ(A) (%),[2]; [16],3%
same,SFC AZ(B) (%),[2]; [16],97%
same,SFC AZ(A) (%),[2]; [12],9.7%
same,SFC AZ(B) (%),[2]; [12],90.3%
same,"invasion of CHT by CD41:GFP cells / number of cells having colonized CHT, in words",[3],further reduce
"NS(=O)(=O)c1cc(C2(O)NC(=O)c3ccccc32)ccc1Cl (stereo not shown) [Chlortalidone, reference compound]",reduction of the number of HSCs accumulated in CHT,[3]; [17],do not cause a decrease
"NNc1nncc2ccccc12 [Hydralazine-hydrochloride, reference compound]",reduction of the number of HSCs accumulated in CHT,[3]; [17],do not cause a decrease
"NS(=O)(=O)c1cc2c(cc1Cl)NCNS2(=O)=O [Hydrochlorothiazide, reference compound]",reduction of the number of HSCs accumulated in CHT,[3]; 10 µM,20%
"Cc1ccccc1N1C(=O)c2cc(S(N)(=O)=O)c(Cl)cc2NC1C (stereo not shown) [Metolazone, reference compound]",reduction of the number of HSCs accumulated in CHT,[3]; [17],do not cause a decrease
"C[N+]1(CCCCC[N+]2(C)CCCC2)CCCC1.O=C([O-])C(O)C(O)C(=O)O.O=C([O-])C(O)C(O)C(=O)O [Pentolinium-bitartrate, reference compound]",reduction of the number of HSCs accumulated in CHT,[3]; [17],do not cause a decrease
"COc1cccc2c1C(=O)c1c(O)c3c(c(O)c1C2=O)C[C@@](O)(C(=O)CO)C[C@@H]3O[C@H]1C[C@H](N)[C@H](O)[C@H](C)O1 [doxorubicin, reference compound]",IC50,[4]; doxorubicin + 100 μM althiazide,3.32 µM
same,IC50,[4]; doxorubicin alone,6.02 µM

# Reference: US20230137849A1, “USE OF A COMPOUND OF THE DIURETICS CLASS FOR TREATING CANCER” (AZELEAD, priority 2017, published 2023)
